Active and inactive are the calls of the source.
What was measured:
[1] = system: Pontederia vaginalis; assay: Pre-emergence herbicidal activity against Monochoria vaginalis assessed as bleaching of stem/leaf parts; format: functional, organism-based
[2] = system: Ammannia multiflora; assay: Post-emergence herbicidal activity against Ammannia multiflora assessed as bleaching of stem/leaf parts; format: functional, organism-based; further: test concentration or dose not given here
[3] = system: Rotala indica; assay: Pre-emergence herbicidal activity against Rotala indica assessed as bleaching of stem/leaf parts; format: functional, organism-based
[4] = system: Rotala indica; assay: Pre-emergence herbicidal activity against Rotala indica at 500 g a.i/ha measured after 14 days; format: functional, organism-based
[5] = system: Elatine triandra; assay: Pre-emergence herbicidal activity against Elatine triandra assessed as bleaching of stem/leaf parts; format: functional, organism-based
[6] = system: Schoenoplectiella juncoides; assay: Post-emergence herbicidal activity against Schoenoplectiella juncoides assessed as bleaching of stem/leaf parts; format: functional, organism-based; further: test concentration or dose not given here
[7] = system: Eleocharis acicularis; assay: Pre-emergence herbicidal activity against Eleocharis acicularis at 500 g a.i/ha measured after 14 days; format: functional, organism-based
[8] = system: Lindernia procumbens; assay: Post-emergence herbicidal activity against Lindernia procumbens assessed as bleaching of stem/leaf parts; format: functional, organism-based; further: test concentration or dose not given here
[9] = system: Lindernia procumbens; assay: Pre-emergence herbicidal activity against Lindernia procumbens at 500 g a.i/ha measured after 14 days; format: functional, organism-based
[10] = system: Elatine triandra; assay: Post-emergence herbicidal activity against Elatine triandra assessed as bleaching of stem/leaf parts; format: functional, organism-based; further: test concentration or dose not given here
[11] = system: Ammannia multiflora; assay: Pre-emergence herbicidal activity against Ammannia multiflora assessed as bleaching of stem/leaf parts; format: functional, organism-based
[12] = system: Oryza sativa; assay: Phytotoxicity against Oryza sativa cv. Koshihikari (rice) at 500 g a.i/ha measured after 14 days; format: organism-based; conditions: in vivo, 336 h
[13] = system: Eleocharis acicularis; assay: Post-emergence herbicidal activity against Eleocharis acicularis assessed as bleaching of stem/leaf parts; format: functional, organism-based; further: test concentration or dose not given here
[14] = system: Echinochloa oryzicola; assay: Pre-emergence herbicidal activity against Echinochloa oryzicola at 500 g a.i/ha measured after 14 days; format: functional, organism-based
[15] = system: Pontederia vaginalis; assay: Pre-emergence herbicidal activity against Monochoria vaginalis at 500 g a.i/ha measured after 14 days; format: functional, organism-based
[16] = system: Cyperus difformis; assay: Post-emergence herbicidal activity against Cyperus difformis assessed as bleaching of stem/leaf parts; format: functional, organism-based; further: test concentration or dose not given here
[17] = system: Ammannia multiflora; assay: Pre-emergence herbicidal activity against Ammannia multiflora at 500 g a.i/ha measured after 14 days; format: functional, organism-based
[18] = system: Elatine triandra; assay: Pre-emergence herbicidal activity against Elatine triandra at 500 g a.i/ha measured after 14 days; format: functional, organism-based
[19] = system: Echinochloa oryzicola; assay: Post-emergence herbicidal activity against Echinochloa oryzicola assessed as bleaching of stem/leaf parts; format: functional, organism-based; further: test concentration or dose not given here
[20] = system: Schoenoplectiella juncoides; assay: Pre-emergence herbicidal activity against Schoenoplectiella juncoides at 500 g a.i/ha measured after 14 days; format: functional, organism-based
[21] = system: Echinochloa oryzicola; assay: Pre-emergence herbicidal activity against Echinochloa oryzicola assessed as bleaching of stem/leaf parts; format: functional, organism-based
[22] = system: Lindernia procumbens; assay: Pre-emergence herbicidal activity against Lindernia procumbens assessed as bleaching of stem/leaf parts; format: functional, organism-based
[23] = system: Pontederia vaginalis; assay: Post-emergence herbicidal activity against Monochoria vaginalis assessed as bleaching of stem/leaf parts; format: functional, organism-based; further: test concentration or dose not given here
[24] = system: Cyperus difformis; assay: Pre-emergence herbicidal activity against Cyperus difformis assessed as bleaching of stem/leaf parts; format: functional, organism-based
[25] = system: Cyperus difformis; assay: Pre-emergence herbicidal activity against Cyperus difformis at 500 g a.i/ha measured after 14 days; format: functional, organism-based
[26] = system: Rotala indica; assay: Post-emergence herbicidal activity against Rotala indica assessed as bleaching of stem/leaf parts; format: functional, organism-based; further: test concentration or dose not given here
[27] = system: Schoenoplectiella juncoides; assay: Pre-emergence herbicidal activity against Schoenoplectiella juncoides assessed as bleaching of stem/leaf parts; format: functional, organism-based
[28] = system: Eleocharis acicularis; assay: Pre-emergence herbicidal activity against Eleocharis acicularis assessed as bleaching of stem/leaf parts; format: functional, organism-based

## Cc1c(C(=O)NOc2ccc(F)cc2F)c(OCc2cccc(C(F)(F)F)c2)nn1C
[1]
  Activity: Active
[2]
  Activity: Active
[3]
  Activity: Active
[4]
  Activity: inactive
[5]
  Activity: Active
[6]
  Activity: Active
[7]
  Activity: inactive
[8]
  Activity: Active
[9]
  Activity: inactive
[10]
  Activity: Active
[11]
  Activity: Active
[12]
  Activity: Non-toxic
[13]
  Activity: Active
[14]
  Activity: inactive
[15]
  Activity: inactive
[16]
  Activity: Active
[17]
  Activity: inactive
[18]
  Activity: inactive
[19]
  Activity: Active
[20]
  Activity: Active
[21]
  Activity: Active
[22]
  Activity: Active
[23]
  Activity: Active
[24]
  Activity: Active
[25]
  Activity: inactive
[26]
  Activity: Active
[27]
  Activity: Active
[28]
  Activity: Active

## CCCn1cc(C(=O)NOCC)c(OCc2cccc(C(F)(F)F)c2)n1
[1]
  Activity: Active
[2]
  Activity: Active
[3]
  Activity: Active
[4]
  Activity: inactive
[5]
  Activity: Active
[6]
  Activity: Active
[7]
  Activity: inactive
[8]
  Activity: Active
[9]
  Activity: inactive
[10]
  Activity: Active
[11]
  Activity: Active
[12]
  Activity: Non-toxic
[13]
  Activity: Active
[14]
  Activity: inactive
[15]
  Activity: inactive
[16]
  Activity: Active
[17]
  Activity: inactive
[18]
  Activity: inactive
[19]
  Activity: Active
[20]
  Activity: inactive
[21]
  Activity: Active
[22]
  Activity: Active
[23]
  Activity: Active
[24]
  Activity: Active
[25]
  Activity: inactive
[26]
  Activity: Active
[27]
  Activity: Active
[28]
  Activity: Active

## C=CCNC(=O)c1cn(C)nc1OCc1cccc(C(F)(F)F)c1
[1]
  Activity: Active
[2]
  Activity: Active
[3]
  Activity: Active
[4]
  Activity: inactive
[5]
  Activity: Active
[6]
  Activity: Active
[7]
  Activity: inactive
[8]
  Activity: Active
[9]
  Activity: inactive
[10]
  Activity: Active
[11]
  Activity: Active
[12]
  Activity: Non-toxic
[13]
  Activity: Active
[14]
  Activity: inactive
[15]
  Activity: inactive
[16]
  Activity: Active
[17]
  Activity: inactive
[18]
  Activity: inactive
[19]
  Activity: Active
[20]
  Activity: inactive
[21]
  Activity: Active
[22]
  Activity: Active
[23]
  Activity: Active
[24]
  Activity: Active
[25]
  Activity: inactive
[26]
  Activity: Active
[27]
  Activity: Active
[28]
  Activity: Active

## Cn1cc(C(=O)NCc2cccc(Cl)c2)c(OCc2cccc(C(F)(F)F)c2)n1
[1]
  Activity: Active
[2]
  Activity: Active
[3]
  Activity: Active
[4]
  Activity: inactive
[5]
  Activity: Active
[6]
  Activity: Active
[7]
  Activity: inactive
[8]
  Activity: Active
[9]
  Activity: inactive
[10]
  Activity: Active
[11]
  Activity: Active
[12]
  Activity: Non-toxic
[13]
  Activity: Active
[14]
  Activity: inactive
[15]
  Activity: inactive
[16]
  Activity: Active
[17]
  Activity: inactive
[18]
  Activity: inactive
[19]
  Activity: Active
[20]
  Activity: inactive
[21]
  Activity: Active
[22]
  Activity: Active
[23]
  Activity: Active
[24]
  Activity: Active
[25]
  Activity: inactive
[26]
  Activity: Active
[27]
  Activity: Active
[28]
  Activity: Active

## Cn1cc(C(=O)Nc2ccc(C(F)(F)F)cc2)c(OCc2cccc(C(F)(F)F)c2)n1
[1]
  Activity: Active
[2]
  Activity: Active
[3]
  Activity: Active
[4]
  Activity: Active
[5]
  Activity: Active
[6]
  Activity: Active
[7]
  Activity: Active
[8]
  Activity: Active
[9]
  Activity: Active
[10]
  Activity: Active
[11]
  Activity: Active
[12]
  Activity: Non-toxic
[13]
  Activity: Active
[14]
  Activity: inactive
[15]
  Activity: Active
[16]
  Activity: Active
[17]
  Activity: Active
[18]
  Activity: Active
[19]
  Activity: Active
[20]
  Activity: inactive
[21]
  Activity: Active
[22]
  Activity: Active
[23]
  Activity: Active
[24]
  Activity: Active
[25]
  Activity: inactive
[26]
  Activity: Active
[27]
  Activity: Active
[28]
  Activity: Active

## Cn1cc(C(=O)Nc2cccc(Cl)c2)c(OCc2cccc(C(F)(F)F)c2)n1
[1]
  Activity: Active
[2]
  Activity: Active
[3]
  Activity: Active
[4]
  Activity: Active
[5]
  Activity: Active
[6]
  Activity: Active
[8]
  Activity: Active
[9]
  Activity: Active
[10]
  Activity: Active
[11]
  Activity: Active
[12]
  Activity: Non-toxic
[13]
  Activity: Active
[14]
  Activity: inactive
[15]
  Activity: inactive
[16]
  Activity: Active
[17]
  Activity: Active
[18]
  Activity: Active
[19]
  Activity: Active
[20]
  Activity: Active
[21]
  Activity: Active
[22]
  Activity: Active
[23]
  Activity: Active
[24]
  Activity: Active
[25]
  Activity: inactive
[26]
  Activity: Active
[27]
  Activity: Active
[28]
  Activity: Active

## Cn1cc(C(=O)Nc2ccc(S(C)(=O)=O)cc2)c(OCc2cccc(C(F)(F)F)c2)n1
[1]
  Activity: Active
[2]
  Activity: Active
[3]
  Activity: Active
[4]
  Activity: inactive
[5]
  Activity: Active
[6]
  Activity: Active
[8]
  Activity: Active
[9]
  Activity: inactive
[10]
  Activity: Active
[11]
  Activity: Active
[12]
  Activity: Non-toxic
[13]
  Activity: Active
[14]
  Activity: inactive
[15]
  Activity: inactive
[16]
  Activity: Active
[17]
  Activity: inactive
[18]
  Activity: inactive
[19]
  Activity: Active
[20]
  Activity: inactive
[21]
  Activity: Active
[22]
  Activity: Active
[23]
  Activity: Active
[24]
  Activity: Active
[25]
  Activity: inactive
[26]
  Activity: Active
[27]
  Activity: Active
[28]
  Activity: Active

Source: ChEMBL document CHEMBL3046635, “Synthesis and Herbicidal Activity of New Pyrazole-4-carboxamide Derivatives” (J Pestic Sci, 2004)
